Test results published in the supplement of paper PMC10307832.

How the values were obtained:
Experiment in all cases: relative viability (nuclei count vs DMSO), 5 days (fraction); higher = more cells survive
[1] = compound: O=C(O)c1ccc2c(c1)nc(Nc1cccc(Cl)c1)c1ccncc12 [Silmitasertib] + Cc1nc(NC(=O)N2CCC[C@H]2C(N)=O)sc1-c1ccnc(C(C)(C)C(F)(F)F)c1 [Alpelisib] (partner 2 µM)
Summary of the method: (§1)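 Lung cancer cell lines were seeded in 1536-well plates and dosed by pin tool the next day, with either a single drug or a fixed anchor-drug dose combined with five library-drug doses (not always all listed) spaced in √10 steps. Five days later, one step fixed the cells and stained their nuclei (final 0.05% Triton X-100, 1% formaldehyde, 1 ug/ml Hoechst), and nuclei were counted on 4× images. Relative viability is the nuclei count in treated wells divided by the count in vehicle wells, and each value is the median of duplicate plates.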

[2] = compound: O=C(O)c1ccc2c(c1)nc(Nc1cccc(Cl)c1)c1ccncc12 [Silmitasertib] + NC(=O)Nc1cc(-c2cccc(F)c2)sc1C(=O)N[C@H]1CCCNC1 [AZD7762] (partner 0.2 µM)
Summary of the method: as §1

[3] = compound: O=C(O)c1ccc2c(c1)nc(Nc1cccc(Cl)c1)c1ccncc12 [Silmitasertib] + Cc1nc(Nc2ncc(C(=O)Nc3c(C)cccc3Cl)s2)cc(N2CCN(CCO)CC2)n1 [Dasatinib] (partner 0.075 µM)
Summary of the method: as §1

[4] = compound: O=C(O)c1ccc2c(c1)nc(Nc1cccc(Cl)c1)c1ccncc12 [Silmitasertib] + N=C(N)NC(=N)NCCc1ccccc1 [Phenformin] (partner 250 µM)
Summary of the method: as §1

[5] = compound: O=C(O)c1ccc2c(c1)nc(Nc1cccc(Cl)c1)c1ccncc12 [Silmitasertib] + CS(=O)(=O)CCNCc1ccc(-c2ccc3ncnc(Nc4ccc(OCc5cccc(F)c5)c(Cl)c4)c3c2)o1 [Lapatinib] (partner 2 µM)
Summary of the method: as §1

Cell Line	relative viability ([1]; first compound 0.04 µM)	relative viability ([1]; first compound 1.265 µM)	relative viability ([1]; first compound 4 µM)	relative viability ([2]; first compound 0.04 µM)	relative viability ([2]; first compound 1.265 µM)	relative viability ([2]; first compound 4 µM)	relative viability ([3]; first compound 0.04 µM)	relative viability ([3]; first compound 1.265 µM)	relative viability ([3]; first compound 4 µM)	relative viability ([4]; first compound 0.04 µM)	relative viability ([4]; first compound 1.265 µM)	relative viability ([4]; first compound 4 µM)	relative viability ([5]; first compound 0.04 µM)	relative viability ([5]; first compound 1.265 µM)	relative viability ([5]; first compound 4 µM)	relative viability ([1]; first compound 0.4 µM)	relative viability ([5]; first compound 0.4 µM)	relative viability ([2]; first compound 0.4 µM)	relative viability ([3]; first compound 0.4 µM)	relative viability ([4]; first compound 0.4 µM)
HOP-62	1.03	0.867	0.678	0.554	0.663	0.385	0.683	0.639	0.567	0.624	0.662	0.608	1.07	0.878	0.229	–	–	–	–	–
IA-LM	0.717	0.942	0.84	–	–	–	–	–	–	–	–	–	1.1	0.967	0.203	0.901	0.615	–	–	–
LC-2-ad	0.78	0.783	0.827	0.95	0.797	0.494	0.915	0.384	0.276	0.645	0.488	0.314	1.06	0.951	0.233	0.87	0.855	0.811	0.482	0.59
LCLC-97TM1	0.216	0.165	0.14	0.418	0.191	0.128	0.976	0.916	0.767	0.477	0.328	0.295	0.999	1.04	0.192	–	–	–	–	–
LCLC-103H	0.995	0.971	0.939	0.839	0.759	0.588	0.449	0.419	0.279	0.314	0.32	0.23	–	–	–	1.01	–	0.803	0.414	0.307
LK-2	1.28	0.914	0.943	0.344	0.362	0.219	0.328	0.309	0.321	0.485	0.415	0.271	1.12	0.867	0.718	0.921	0.928	–	–	–
LOU-NH91	0.8	0.612	0.593	0.785	0.621	0.594	0.585	0.46	0.383	0.812	0.584	0.423	0.747	0.548	0.516	0.614	0.649	0.745	0.475	0.617
NCI-H441	0.746	0.634	0.41	1.34	1.09	1.16	0.651	0.532	0.333	0.692	0.739	0.335	–	–	–	–	–	–	–	–
NCI-H520	0.932	1.16	0.832	–	–	–	0.274	0.196	0.193	0.677	0.605	0.429	0.93	0.773	0.438	1.01	0.902	–	0.215	0.492
NCI-H522	–	–	–	0.89	0.822	0.819	0.876	0.788	0.849	0.669	0.626	0.678	–	–	–	–	–	0.841	0.785	0.554
NCI-H661	0.784	0.547	0.338	–	–	–	1.13	0.607	0.569	0.287	0.283	0.276	0.522	0.477	0.661	–	–	–	0.723	0.339
NCI-H1650	–	–	–	–	–	–	0.358	0.248	0.242	0.49	0.283	0.151	1.4	0.671	0.23	–	0.825	–	0.35	0.412
NCI-H1703	0.334	0.392	0.452	0.136	0.153	0.146	–	–	–	–	–	–	1.27	1.01	0.892	0.312	0.868	–	–	–
NCI-H2009	1.17	1.03	0.707	–	–	–	0.35	0.246	0.218	0.542	0.374	0.312	1.04	0.85	0.341	1.03	0.636	–	0.297	0.487
NCI-H2023	0.684	0.599	0.399	–	–	–	0.547	0.548	0.416	0.455	0.374	0.34	1.05	0.767	0.159	0.522	0.373	–	0.443	0.38
NCI-H2228	0.785	0.821	0.808	–	–	–	0.517	0.523	0.528	0.409	0.258	0.371	1.16	1.03	1	0.821	0.944	–	–	–
SK-LU-1	1.09	0.413	0.27	–	–	–	0.203	0.172	0.175	0.527	0.426	0.262	0.995	0.369	0.388	0.836	0.649	–	0.164	0.451
SK-MES-1	0.87	0.788	0.446	–	–	–	0.47	0.294	0.232	0.752	0.434	0.27	0.442	0.536	0.429	0.896	0.594	–	0.283	0.582
SW 900	–	–	–	0.72	0.691	0.338	0.82	0.614	0.398	0.817	0.452	0.24	–	–	–	–	–	0.578	0.316	0.34
SW 1573	0.758	0.723	0.504	–	–	–	0.624	0.576	0.451	0.465	0.336	0.387	1.1	1.11	0.67	0.588	1.07	–	0.516	0.319
UMC-11	1.03	1	0.627	–	–	–	0.508	0.491	0.331	0.336	0.341	0.286	1.14	0.965	0.359	0.994	0.949	–	0.477	0.319
